Here are results for three compounds from patent US20250186558A1, “FORMULATIONS COMPRISING ACID-NEUTRALIZING POLYMER FOR ORAL ADMINISTRATION OF ACTIVE AGENTS” (Entera Bio Ltd., priority 2022, published 2025).

Data set [1] deals with pepsin. The data set is described as follows: Effect of pH on proteolysis of hPTH(1-34) by pepsin. In kind it is in vitro ADME. As to conditions: 37° C., 3 minutes, media pH 2, 4, 5, 6, 7. The method, then: The effect of pH on peptide proteolysis by pepsin was determined by incubating 13.5 µg/ml human parathyroid hormone (1-34) (hPTH(1-34)) with 150 µg/ml pepsin, at various pH values, and determining the percentage of hPTH(1-34) which remained. The amount of hPTH(1-34) remaining upon addition to 150 µg/ml pepsin at 37° C. was determined in media with different pH values, followed by immediate (10 second) vortex and centrifugation for 3 minutes at 4° C., 4000 RCF. The following media were used: simulated gastric fluid (pH 2), prepared from 0.01 M HCl and NaCl; phthalate buffer (pH 4 or 5); and phosphate buffer (pH 6 or 7).

Data set [2] in a line: Teduglutide plasma concentration after oral mini-tablets with SNAC and SSG in rats. In kind it is in vivo, male Sprague-Dawley (SD) rats. The conditions noted are these: mini-tablets: 0.7 mg teduglutide (2.34 mg/Kg), 15 mg SNAC, 5.33 mg SSG; male SD rats, n=7. As for the experimental part: A formulation was prepared with 0.7 mg teduglutide (2.34 mg/Kg), 15 mg SNAC, 0.2 mg stearate and 5.33 mg SSG. […] Afterwards, mini-tablets were prepared from the mixes using a 2 mm punch and die set at 1 ton/cm^2.
The study was conducted in 7 male Sprague-Dawley (SD) rats weighing about 299 grams (290-320 grams). Animals were deprived of food 12-15 hours prior to administration. Water supply was removed one hour before administration and returned one hour post-administration. The mini-tablets were administered by a flexible intragastric gavage with a tip adapted for solid dosage forms administration, without the aid of water.

The nature of data set [3]: pH upon addition of test substance to 0.1 M HCl solution (pH 1.2), pH meter. In kind it is physicochemical. The method, then: The solution pH was determined using an MP-103 pH-meter (MRC, Israel) equipped with ELC-10-00 electrode (MRC, Israel) or with a thin electrode HI1083 (HANNA instruments Inc.), shortly after dissolution and up to 26 hours later in order to ensure that the pH remained stable. The highest pH value obtained during the experimental time period was recorded in order to compare the acid-neutralizing capacity of each substance.
SNAC and the basic polymers sodium alginate, sodium carboxymethylcellulose in non-crosslinked (Na-CMC) and crosslinked (croscarmellose sodium, CCS) forms, and sodium starch glycolate (SSG) were dissolved in various volumes of 0.1 M HCl solution (pH 1.2) at concentrations of 1, 2, 4, 10, 20, 50, 100 and 150 mg/ml, and the solution pH was determined using an MP-103 pH-meter (MRC, Israel) equipped with ELC-10-00 electrode (MRC, Israel), as described in the Materials and Methods section hereinabove.
In order to obtain a beneficial rise in pH with a reduced loss of the active form of the absorption enhancer, the effect of various concentrations of different polymers containing carboxylate groups (sodium alginate, sodium starch glycolate, sodium carboxymethylcellulose, and croscarmellose sodium) on pH upon addition to a 0.1 M HCl solution (pH 1.2) was also evaluated. FIG. 3A presents pH values determined using an MP-103 pH-meter (MRC, Israel) equipped with ELC-10-00 electrode (MRC, Israel) and FIG. 3B presents pH values determined using an MP-103 pH-meter (MRC, Israel) equipped with a thin electrode HI1083 (HANNA instruments Inc.).

For the compound `CC[C@H](C)[C@H](NC(=O)[C@H](CCC(=O)O)NC(=O)[C@H](CO)NC(=O)[C@@H](NC(=O)[C@@H](N)CO)C(C)C)C(=O)N[C@@H](CCC(N)=O)C(=O)N[C@@H](CC(C)C)C(=O)N[C@@H](CCSC)C(=O)N[C@@H](Cc1cnc[nH]1)C(=O)N[C@@H](CC(N)=O)C(=O)N[C@@H](CC(C)C)C(=O)NCC(=O)N[C@@H](CCCCN)C(=O)N[C@@H](Cc1cnc[nH]1)C(=O)N[C@@H](CC(C)C)C(=O)N[C@@H](CC(N)=O)C(=O)N[C@@H](CO)C(=O)N[C@@H](CCSC)C(=O)N[C@@H](CCC(=O)O)C(=O)N[C@@H](CCCN=C(N)N)C(=O)N[C@H](C(=O)N[C@@H](CCC(=O)O)C(=O)N[C@@H](Cc1c[nH]c2ccccc12)C(=O)N[C@@H](CC(C)C)C(=O)N[C@@H](CCCN=C(N)N)C(=O)N[C@@H](CCCCN)C(=O)N[C@@H](CCCCN)C(=O)N[C@@H](CC(C)C)C(=O)N[C@@H](CCC(N)=O)C(=O)N[C@@H](CC(=O)O)C(=O)N[C@H](C(=O)N[C@@H](Cc1cnc[nH]1)C(=O)N[C@@H](CC(N)=O)C(=O)N[C@@H](Cc1ccccc1)C(=O)O)C(C)C)C(C)C` [hPTH(1-34)], the “proteolysis of hPTH(1-34) by pepsin as a function of pH” value in data set [1] is reported as “inhibited when the pH increased to about pH 6 or higher”.

Turning to `CC[C@H](C)[C@H](NC(=O)[C@H](Cc1ccccc1)NC(=O)[C@H](CC(=O)O)NC(=O)[C@H](CCCNC(=N)N)NC(=O)[C@H](C)NC(=O)[C@H](C)NC(=O)[C@H](CC(C)C)NC(=O)[C@H](CC(N)=O)NC(=O)[C@H](CC(=O)O)NC(=O)[C@H](CC(C)C)NC(=O)[C@@H](NC(=O)[C@@H](NC(=O)[C@H](CC(N)=O)NC(=O)[C@H](CCSC)NC(=O)[C@H](CCC(=O)O)NC(=O)[C@H](CC(=O)O)NC(=O)[C@H](CO)NC(=O)[C@H](Cc1ccccc1)NC(=O)[C@H](CO)NC(=O)CNC(=O)[C@H](CC(=O)O)NC(=O)CNC(=O)[C@@H](N)Cc1c[nH]cn1)[C@@H](C)O)[C@@H](C)CC)C(=O)N[C@@H](CC(N)=O)C(=O)N[C@@H](Cc1c[nH]c2ccccc12)C(=O)N[C@@H](CC(C)C)C(=O)N[C@H](C(=O)N[C@@H](CCC(N)=O)C(=O)N[C@H](C(=O)N[C@@H](CCCCN)C(=O)N[C@H](C(=O)N[C@H](C(=O)N[C@@H](CC(=O)O)C(=O)O)[C@@H](C)O)[C@@H](C)CC)[C@@H](C)O)[C@@H](C)CC` [teduglutide], the “teduglutide plasma concentrations as a function of time after oral administration” value in data set [2] is reported as “enable oral delivery of teduglutide”. Turning to `O=C(O)CCCCCCCNC(=O)c1ccccc1O` [SNAC, sodium 8-N-(2-hydroxybenzoyl)aminocaprylate], the results for the “pH 5 minutes after dissolution” value in data set [3] (10 mg/ml SNAC added to HCl solution (pH 1.2)), in data set [3] (20 mg/ml SNAC added to HCl solution (pH 1.2)) and in data set [3] (100 mg/ml SNAC added to HCl solution (pH 1.2)) were “about 1.5”, 6.5 and “about 7.5”, respectively.
